Laboratory results published in patent publication US8653100B2 (AbbVie Inc., priority 2008, dated 2014).
Counter-ions that a name gives are not always drawn. Like-named read-outs stand apart in the source and are kept apart here.

Columns and labels:
human GlyT1c transporter = human GlyT1c transporter (Homo sapiens (Human), UniProt P48067); assay: Radioligand binding assay using recombinant CHO cell membranes expressing human GlyT1; details: read-out: radioligand binding Kiapp
Procedure, shortened: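 Competition binding of [^3H]-(R)-NPTS (0.5 nM) to CHO membranes expressing human GlyT1c (50 μg/ml protein) in pH 7.5 Hepes/NaCl buffer with 1% DMSO, 1 h at room temperature. Non-specific binding defined with 10 μM Org24598; filtration and scintillation counting, one-site fit, Ki via Cheng-Prusoff.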

human GlyT1c = human GlyT1c (Homo sapiens (Human), UniProt P48067); assay: [3H]-Glycine uptake into recombinant CHO cells expressing human GlyT1; format: cell-based; details: hGlyT1c_5_CHO cells, 200 nM [3H]-glycine
Procedure, shortened: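 hGlyT1c-expressing CHO cells plated at 20,000 cells/well and cultured 24 h; [3H]-glycine incorporation read continuously by solid-phase scintillation for up to 3 h. IC50 from four-parameter logistic fit using the linear uptake phase between 60 and 120 min.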

[1] = radioligand [3H]-(R)-NPTS (examples 1-19, 22-52, 54-87)
[2] = examples 88-204, radioligand not specified by footnote

Sequence of human GlyT1c (P48067 whole entry): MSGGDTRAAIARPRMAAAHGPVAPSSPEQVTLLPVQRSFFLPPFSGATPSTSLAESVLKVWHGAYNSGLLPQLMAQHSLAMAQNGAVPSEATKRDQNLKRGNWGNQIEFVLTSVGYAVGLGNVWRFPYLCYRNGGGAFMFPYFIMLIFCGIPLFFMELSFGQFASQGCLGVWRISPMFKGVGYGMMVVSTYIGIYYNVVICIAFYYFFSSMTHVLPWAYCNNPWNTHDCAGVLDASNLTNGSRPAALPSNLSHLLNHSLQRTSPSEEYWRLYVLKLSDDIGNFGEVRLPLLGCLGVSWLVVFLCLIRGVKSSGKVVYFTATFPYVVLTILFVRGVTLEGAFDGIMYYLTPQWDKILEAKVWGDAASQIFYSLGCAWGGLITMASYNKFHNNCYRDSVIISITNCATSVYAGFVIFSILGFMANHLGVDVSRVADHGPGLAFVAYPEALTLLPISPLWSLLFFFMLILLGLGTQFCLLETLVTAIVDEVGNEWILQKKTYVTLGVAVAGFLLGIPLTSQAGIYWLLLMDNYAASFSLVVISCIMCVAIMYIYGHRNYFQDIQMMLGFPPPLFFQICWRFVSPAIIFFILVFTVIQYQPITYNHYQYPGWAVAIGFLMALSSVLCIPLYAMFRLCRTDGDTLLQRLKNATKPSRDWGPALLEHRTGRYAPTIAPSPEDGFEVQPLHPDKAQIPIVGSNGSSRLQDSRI
Sequence of human GlyT1c transporter (P48067 whole entry): as above

O=S(=O)(NCCOc1ccc2c(c1)C(C1(c3ccc(Cl)cc3)CCC1)NCC2)c1ccccc1Cl (stereo not drawn) [Example 25, 2-Chloro-N-(2-{1-[1-(4-chloro-phenyl)-cyclobutyl]-1,2,3,4-tetrahydro-isoquinolin-7-yloxy}-ethyl)-benzenesulfonamide hydrochloride]
Ki (human GlyT1c transporter; [1]): ≤ 1 µM | IC50 (human GlyT1c): ≤ 1 µM

O=S(=O)(NCCOc1ccc2c(c1)C(C1(c3ccc(Cl)cc3)CCC1)NCC2)c1cccc(Cl)c1 (stereo not drawn) [Example 26, 3-Chloro-N-(2-{1-[1-(4-chloro-phenyl)-cyclobutyl]-1,2,3,4-tetrahydro-isoquinolin-7-yloxy}-ethyl)-benzenesulfonamide hydrochloride]
Ki (human GlyT1c transporter; [1]): ≤ 10 µM | IC50 (human GlyT1c): ≤ 1 µM

O=S(=O)(NCCOc1ccc2c(c1)C(C1(c3ccc(Cl)cc3)CCC1)NCC2)c1ccc(Cl)cc1 (stereo not drawn) [Example 27, 4-Chloro-N-(2-{1-[1-(4-chloro-phenyl)-cyclobutyl]-1,2,3,4-tetrahydro-isoquinolin-7-yloxy}-ethyl)-benzenesulfonamide hydrochloride]
Ki (human GlyT1c transporter; [1]): ≤ 1 µM | IC50 (human GlyT1c): ≤ 1 µM

O=S(=O)(NCCOc1ccc2c(c1)C(C1(c3ccc(Cl)cc3)CCC1)NCC2)C1CC1 (stereo not drawn) [Example 28, Cyclopropanesulfonic acid (2-{1-[1-(4-chloro-phenyl)-cyclobutyl]-1,2,3,4-tetrahydro-isoquinolin-7-yloxy}-ethyl)-amide hydrochloride]
Ki (human GlyT1c transporter; [1]): ≤ 0.1 µM | IC50 (human GlyT1c): ≤ 0.1 µM

O=S(=O)(NCCOc1ccc2c(c1)C(C1(c3ccc(Cl)cc3)CCC1)NCC2)c1ccc(Cl)nc1 (stereo not drawn) [Example 29, 6-Chloro-pyridine-3-sulfonic acid (2-{1-[1-(4-chloro-phenyl)-cyclobutyl]-1,2,3,4-tetrahydro-isoquinolin-7-yloxy}-ethyl)-amide hydrochloride]
Ki (human GlyT1c transporter; [1]): ≤ 1 µM | IC50 (human GlyT1c): ≤ 1 µM

O=S(=O)(NCCOc1ccc2c(c1)C(C1(c3ccc(Cl)cc3)CCC1)NCC2)c1cccc2cccnc12 (stereo not drawn) [Example 30, Quinoline-8-sulfonic acid (2-{1-[1-(4-chloro-phenyl)-cyclobutyl]-1,2,3,4-tetrahydro-isoquinolin-7-yloxy}-ethyl)-amide hydrochloride]
Ki (human GlyT1c transporter; [1]): ≤ 10 µM | IC50 (human GlyT1c): ≤ 1 µM

COc1ccc(S(=O)(=O)NCCOc2ccc3c(c2)C(C2(c4ccc(Cl)cc4)CCC2)NCC3)cc1 (stereo not drawn) [Example 31, N-(2-{1-[1-(4-Chloro-phenyl)-cyclobutyl]-1,2,3,4-tetrahydro-isoquinolin-7-yloxy}-ethyl)-4-methoxy-benzenesulfonamide hydrochloride]
Ki (human GlyT1c transporter; [1]): ≤ 1 µM | IC50 (human GlyT1c): ≤ 1 µM

O=S(=O)(Cc1ccccc1)NCCOc1ccc2c(c1)C(C1(c3ccc(Cl)cc3)CCC1)NCC2 (stereo not drawn) [Example 32, N-(2-{1-[1-(4-Chloro-phenyl)-cyclobutyl]-1,2,3,4-tetrahydro-isoquinolin-7-yloxy}-ethyl)-C-phenyl-methanesulfonamide hydrochloride]
Ki (human GlyT1c transporter; [1]): ≤ 10 µM | IC50 (human GlyT1c): ≤ 10 µM

O=S(=O)(NCCOc1ccc2c(c1)C(C1(c3ccc(Cl)cc3)CCC1)NCC2)c1ccccc1 (stereo not drawn) [Example 62, N-(2-{1-[1-(4-Chloro-phenyl)-cyclobutyl]-1,2,3,4-tetrahydro-isoquinolin-7-yloxy}-ethyl)-benzenesulfonamide hydrochloride]
Ki (human GlyT1c transporter; [1]): ≤ 1 µM | IC50 (human GlyT1c): ≤ 1 µM

CCCS(=O)(=O)NCCOc1ccc2c(c1)C(C1(c3ccc(F)cc3)CCC1)NCC2 (stereo not drawn) [Example 65, N-[2-({1-[1-(4-Fluorophenyl)cyclobutyl]-1,2,3,4-tetrahydroisoquinolin-7-yl}oxy)ethyl]propane-1-sulfonamide hydrochloride]
Ki (human GlyT1c transporter; [1]): ≤ 0.1 µM | IC50 (human GlyT1c): ≤ 0.1 µM

CCCS(=O)(=O)NCCOc1ccc2c(c1)C(C1(c3ccc(F)cc3)CCC1)N(C(=N)N)CC2 (stereo not drawn) [Example 72, 1-[1-(4-Fluorophenyl)cyclobutyl]-7-{2-[(propylsulfonyl)amino]ethoxy}-3,4-dihydroisoquinoline-2(1H)-carboximidamide acetate]
Ki (human GlyT1c transporter; [1]): ≤ 10 µM | IC50 (human GlyT1c): ≤ 1 µM

CCCS(=O)(=O)N1CCN(c2cc3c(cc2OC)C(C2(c4ccc(Cl)cc4)CCC2)N(S(=O)(=O)CCC)CC3)CC1 (stereo not drawn) [Example 84, 1-[1-(4-Chlorophenyl)cyclobutyl]-7-methoxy-2-(propylsulfonyl)-6-[4-(propylsulfonyl)-piperazin-1-yl]-1,2,3,4-tetrahydroisoquinoline]
Ki (human GlyT1c transporter; [1]): ≤ 10 µM | IC50 (human GlyT1c): ≤ 100 µM

O=S(=O)(NCCOc1ccc2c(c1)C(C1(c3cccc(F)c3)CCC1)NCC2)c1cccnc1 (stereo not drawn) [Example 101, N-[2-({1-[1-(3-fluorophenyl)cyclobutyl]-1,2,3,4-tetrahydroisoquinolin-7-yl}oxy)ethyl]pyridine-3-sulfonamide dihydrochloride]
Ki (human GlyT1c transporter; [2]): ≤ 0.1 µM | IC50 (human GlyT1c): ≤ 1 µM

CC(C)(O)CS(=O)(=O)NCCOc1ccc2c(c1)C(C1(c3ccc(Cl)cc3)CCC1)NCC2 (stereo not drawn) [Example 103, N-[2-({1-[1-(4-Chlorophenyl)cyclobutyl]-1,2,3,4-tetrahydroisoquinolin-7-yl}oxy)ethyl]-2-hydroxy-2-methylpropane-1-sulfonamide hydrochloride]
Ki (human GlyT1c transporter; [2]): ≤ 0.1 µM | IC50 (human GlyT1c): ≤ 0.1 µM

O=S(=O)(NCCOc1ccc2c(c1)C(C1(c3cccc(F)c3)CCC1)NCC2)c1cccs1 (stereo not drawn) [Example 106, N-[2-({1-[1-(3-Fluorophenyl)cyclobutyl]-1,2,3,4-tetrahydroisoquinolin-7-yl}oxy)ethyl]thiophene-2-sulfonamide hydrochloride]
Ki (human GlyT1c transporter; [2]): ≤ 1 µM | IC50 (human GlyT1c): ≤ 10 µM

O=S(=O)(NCc1ccc2c(c1)C(C1(c3ccc(Cl)cc3)CCC1)NCC2)c1cccnc1 (stereo not drawn) [Example 108, N-({1-[1-(4-Chlorophenyl)cyclobutyl]-1,2,3,4-tetrahydroisoquinolin-7-yl}methyl)pyridine-3-sulfonamide dihydrochloride]
Ki (human GlyT1c transporter; [2]): ≤ 1 µM | IC50 (human GlyT1c): ≤ 10 µM

O=S(=O)(CCCOc1ccc2c(c1)C(C1(c3ccc(Cl)cc3)CCC1)NCC2)Nc1ccccc1 (stereo not drawn) [Example 112, 3-({1-[1-(4-Chlorophenyl)cyclobutyl]-1,2,3,4-tetrahydroisoquinolin-7-yl}oxy)-N-phenylpropane-1-sulfonamide hydrochloride]
Ki (human GlyT1c transporter; [2]): ≤ 1 µM | IC50 (human GlyT1c): ≤ 10 µM

O=S(=O)(Nc1ccccc1Oc1ccc2c(c1)C(C1(c3ccc(Cl)cc3)CCC1)NCC2)c1cccs1 (stereo not drawn) [Example 116, N-[2-({1-[1-(4-Chlorophenyl)cyclobutyl]-1,2,3,4-tetrahydroisoquinolin-7-yl}oxy)phenyl]thiophene-2-sulfonamide hydrochloride]
Ki (human GlyT1c transporter; [2]): ≤ 1 µM | IC50 (human GlyT1c): ≤ 100 µM

CC(C)NS(=O)(=O)CCCOc1ccc2c(c1)C(C1(c3ccc(Cl)cc3)CCC1)NCC2 (stereo not drawn) [Example 117, 3-({1-[1-(4-Chlorophenyl)cyclobutyl]-1,2,3,4-tetrahydroisoquinolin-7-yl}oxy)-N-(propan-2-yl)propane-1-sulfonamide hydrochloride]
Ki (human GlyT1c transporter; [2]): ≤ 1 µM | IC50 (human GlyT1c): ≤ 10 µM

CC(C)(C)NS(=O)(=O)CCCOc1ccc2c(c1)C(C1(c3ccc(Cl)cc3)CCC1)NCC2 (stereo not drawn) [Example 118, N-tert-Butyl-3-({1-[1-(4-chlorophenyl)cyclobutyl]-1,2,3,4-tetrahydroisoquinolin-7-yl}oxy)propane-1-sulfonamide hydrochloride]
Ki (human GlyT1c transporter; [2]): ≤ 1 µM | IC50 (human GlyT1c): ≤ 10 µM

COc1ccccc1NS(=O)(=O)CCCOc1ccc2c(c1)C(C1(c3ccc(Cl)cc3)CCC1)NCC2 (stereo not drawn) [Example 121, 3-({1-[1-(4-Chlorophenyl)cyclobutyl]-1,2,3,4-tetrahydroisoquinolin-7-yl}oxy)-N-(2-methoxyphenyl)propane-1-sulfonamide hydrochloride]
Ki (human GlyT1c transporter; [2]): ≤ 10 µM | IC50 (human GlyT1c): ≤ 10 µM

CC(C)(C)OC(=O)N1CCN(S(=O)(=O)CCCOc2ccc3c(c2)C(C2(c4ccc(Cl)cc4)CCC2)NCC3)CC1 (stereo not drawn) [Example 123, tert-Butyl 4-{[3-({1-[1-(4-chlorophenyl)cyclobutyl]-1,2,3,4-tetrahydroisoquinolin-7-yl}oxy)propyl]sulfonyl}piperazine-1-carboxylate]
Ki (human GlyT1c transporter; [2]): ≤ 10 µM | IC50 (human GlyT1c): ≤ 100 µM

CC(C)(C)OC(=O)NCCNS(=O)(=O)CCCOc1ccc2c(c1)C(C1(c3ccc(Cl)cc3)CCC1)NCC2 (stereo not drawn) [Example 126, tert-Butyl [2-({[3-({1-[1-(4-chlorophenyl)cyclobutyl]-1,2,3,4-tetrahydroisoquinolin-7-yl}oxy)propyl]sulfonyl}amino)ethyl]carbamate]
Ki (human GlyT1c transporter; [2]): ≤ 10 µM | IC50 (human GlyT1c): ≤ 10 µM

NCCNS(=O)(=O)CCCOc1ccc2c(c1)C(C1(c3ccc(Cl)cc3)CCC1)NCC2 (stereo not drawn) [Example 130, N-(2-Aminoethyl)-3-({1-[1-(4-chlorophenyl)cyclobutyl]-1,2,3,4-tetrahydroisoquinolin-7-yl}oxy)propane-1-sulfonamide dihydrochloride]
Ki (human GlyT1c transporter; [2]): ≤ 10 µM | IC50 (human GlyT1c): ≤ 100 µM

CN(C)CCNS(=O)(=O)CCCOc1ccc2c(c1)C(C1(c3ccc(Cl)cc3)CCC1)NCC2 (stereo not drawn) [Example 132, 3-({1-[1-(4-Chlorophenyl)cyclobutyl]-1,2,3,4-tetrahydroisoquinolin-7-yl}oxy)-N-[2-(dimethylamino)ethyl]propane-1-sulfonamide dihydrochloride]
Ki (human GlyT1c transporter; [2]): ≤ 10 µM | IC50 (human GlyT1c): ≤ 10 µM

O=S(=O)(CCCOc1ccc2c(c1)C(C1(c3ccc(Cl)cc3)CCC1)NCC2)N1CCNCC1 (stereo not drawn) [Example 133, 1-[1-(4-Chlorophenyl)cyclobutyl]-7-[3-(piperazin-1-ylsulfonyl)propoxy]-1,2,3,4-tetrahydroisoquinoline dihydrochloride]
Ki (human GlyT1c transporter; [2]): ≤ 10 µM | IC50 (human GlyT1c): ≤ 10 µM

COCCNS(=O)(=O)CCCOc1ccc2c(c1)C(C1(c3ccc(Cl)cc3)CCC1)NCC2 (stereo not drawn) [Example 135, 3-({1-[1-(4-Chlorophenyl)cyclobutyl]-1,2,3,4-tetrahydroisoquinolin-7-yl}oxy)-N-(2-methoxyethyl)propane-1-sulfonamide hydrochloride]
Ki (human GlyT1c transporter; [2]): ≤ 10 µM | IC50 (human GlyT1c): ≤ 100 µM
